Experimental data taken from publication PMC7760838, “Synthesis, Biological, and Computational Evaluation of Antagonistic, Chiral Hydrobenzoin Esters of Arecaidine Targeting mAChR M1” (Pharmaceuticals, 2020).

Legend:
human mAChR M2 = biological target: T1, human mAChR M2 (Homo sapiens, UniProt P08172); assay: competitive radioligand binding assay with [3H]NMS on CHO cell membranes, M2; conditions: n ≥ 3, ± standard deviation, read-out: Inhibition constants (Ki) M2
T1 construct: host or cells: CHO-K1
T1 sequence (P08172 1-466): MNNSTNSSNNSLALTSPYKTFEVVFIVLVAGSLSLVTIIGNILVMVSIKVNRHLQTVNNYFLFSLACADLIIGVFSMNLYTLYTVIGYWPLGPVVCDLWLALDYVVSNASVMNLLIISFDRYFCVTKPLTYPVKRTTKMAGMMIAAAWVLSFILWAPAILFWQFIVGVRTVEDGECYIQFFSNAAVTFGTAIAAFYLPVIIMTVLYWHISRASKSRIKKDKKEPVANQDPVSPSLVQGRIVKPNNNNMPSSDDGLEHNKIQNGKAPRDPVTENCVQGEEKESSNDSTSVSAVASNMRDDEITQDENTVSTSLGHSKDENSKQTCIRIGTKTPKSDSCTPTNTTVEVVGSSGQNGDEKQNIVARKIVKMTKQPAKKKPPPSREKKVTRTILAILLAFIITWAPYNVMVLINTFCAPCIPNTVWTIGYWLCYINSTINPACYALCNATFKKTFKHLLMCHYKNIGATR
Method: (§1) Cell membranes bearing human mAChRs M1-M5 were prepared as described previously. In short, stably transfected CHO cells were grown to confluence in T175 flasks, washed with ice-cold DPBS, and suspended in 2 mL 10 mM Tris/HCl, 1 mM EDTA-buffer (pH 7.4), and 200 µL protease inhibitor using a cell scraper. A cell homogenate was prepared by passing the cell suspension through a G29 needle and subsequently centrifuged (10 min, 1000× g, 4 °C). Ultracentrifugation of the supernatant (30 min, 100,000× g, 4 °C) yielded a membrane pellet, which was suspended in 125 µL 50 mM Tris/HCl-buffer (pH 7.4) per T175 flask and stored at −80 °C. Ten confluent T175 flask were processed for one batch.
(§2) The membrane-bound activity was recovered by filtration through GF/B filter paper pre-soaked in 0.1 % PEI and measured with a liquid scintillation counter. Maximum binding was measured by using 5 µL plain DMSO, and nonspecific binding was measured by using 5 µL 1 µM scopolamine in DMSO. […] Then, 3–12 µL membrane suspension were used per tube. IC50 values were calculated by a variable slope logistic regression using at least five distinct concentrations of test compound, pipetted in triplicates.

[1] = stability in Ham's F12 cell culture medium at 37 °C (UV-HPLC); assay type: physicochemical; conditions: for decomposed after 2 h: linear interpolation between 0 h and 10 h
Method: (§3) First, 1089 µL DPBS or Ham’s F12 nutrient mixture were mixed with 11 µL of 10 mM stock solution of 1, 2, or 3 in DMSO (final DMSO content: 1%) and agitated at 37 °C. Then, 80 µL of the solution was analyzed by UV-HPLC (216 nm) using an XSelect™ (HSS T3, 3.5 μm, 100 × 4.6 mm) stationary phase and 40% acetonitrile in 25 mM (NH4)H2PO4 buffer (pH 9.3) at a flow of 1 mL/min (k1,2 = 5.6, k3 = 5.9). The fraction of stable compounds was calculated as the area under the curve of the compound peak for each combination of compound and matrix related to the 0 h time point with 100%. Three non-consecutive HPLC analyses were performed for each time point, combination of compounds, and matrix.

human mAChR M5 = biological target: T2, human mAChR M5 (Homo sapiens, UniProt P08912); assay: competitive radioligand binding assay with [3H]NMS on CHO cell membranes, M5; conditions: n ≥ 3, ± standard deviation, read-out: Inhibition constants (Ki) M5
T2 construct: host or cells: CHO-K1
T2 sequence (P08912 1-532): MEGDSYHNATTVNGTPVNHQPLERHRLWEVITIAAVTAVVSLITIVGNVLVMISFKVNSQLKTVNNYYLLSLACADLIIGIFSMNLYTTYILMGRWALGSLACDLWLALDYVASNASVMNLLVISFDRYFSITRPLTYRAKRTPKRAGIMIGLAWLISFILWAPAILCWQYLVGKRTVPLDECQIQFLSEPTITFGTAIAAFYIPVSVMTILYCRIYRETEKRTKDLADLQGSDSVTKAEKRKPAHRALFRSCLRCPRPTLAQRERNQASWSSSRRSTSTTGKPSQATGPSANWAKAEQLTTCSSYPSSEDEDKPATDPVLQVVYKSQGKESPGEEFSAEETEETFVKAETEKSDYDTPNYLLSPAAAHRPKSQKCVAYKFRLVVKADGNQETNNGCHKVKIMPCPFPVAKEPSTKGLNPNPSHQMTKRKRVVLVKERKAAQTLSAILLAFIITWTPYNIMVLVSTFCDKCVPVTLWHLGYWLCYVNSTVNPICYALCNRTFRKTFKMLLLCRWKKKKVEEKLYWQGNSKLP
Method: as §1, §2

human mAChR M4 = biological target: T3, human mAChR M4 (Homo sapiens, UniProt P08173); assay: competitive radioligand binding assay with [3H]NMS on CHO cell membranes, M4; conditions: n ≥ 3, ± standard deviation, read-out: Inhibition constants (Ki) M4
T3 construct: host or cells: CHO-K1
T3 sequence (P08173 1-479): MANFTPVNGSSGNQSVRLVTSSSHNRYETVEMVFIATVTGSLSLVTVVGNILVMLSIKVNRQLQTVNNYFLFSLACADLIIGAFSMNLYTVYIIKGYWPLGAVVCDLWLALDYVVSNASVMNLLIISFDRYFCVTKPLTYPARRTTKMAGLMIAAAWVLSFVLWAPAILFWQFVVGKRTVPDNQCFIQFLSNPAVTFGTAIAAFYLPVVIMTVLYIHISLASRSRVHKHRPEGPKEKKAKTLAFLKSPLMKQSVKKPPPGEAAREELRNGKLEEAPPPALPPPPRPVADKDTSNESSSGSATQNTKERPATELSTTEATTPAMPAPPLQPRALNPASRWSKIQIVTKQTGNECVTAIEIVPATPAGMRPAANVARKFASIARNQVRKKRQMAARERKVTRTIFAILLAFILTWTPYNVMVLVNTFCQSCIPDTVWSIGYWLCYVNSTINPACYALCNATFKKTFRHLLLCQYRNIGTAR
Method: as §1, §2

mAChR M1 [2] = biological target: T4, mAChR M1 (Homo sapiens, UniProt P11229); assay: competitive radioligand binding assay with [3H]NMS on CHO cell membranes, M1; conditions: for Ki: CHO cell membranes, [3H]NMS, n ≥ 3, ± standard deviation, read-out: Inhibition constants (Ki) M1
T4 construct: host or cells: CHO-K1
T4 sequence (P11229 1-460): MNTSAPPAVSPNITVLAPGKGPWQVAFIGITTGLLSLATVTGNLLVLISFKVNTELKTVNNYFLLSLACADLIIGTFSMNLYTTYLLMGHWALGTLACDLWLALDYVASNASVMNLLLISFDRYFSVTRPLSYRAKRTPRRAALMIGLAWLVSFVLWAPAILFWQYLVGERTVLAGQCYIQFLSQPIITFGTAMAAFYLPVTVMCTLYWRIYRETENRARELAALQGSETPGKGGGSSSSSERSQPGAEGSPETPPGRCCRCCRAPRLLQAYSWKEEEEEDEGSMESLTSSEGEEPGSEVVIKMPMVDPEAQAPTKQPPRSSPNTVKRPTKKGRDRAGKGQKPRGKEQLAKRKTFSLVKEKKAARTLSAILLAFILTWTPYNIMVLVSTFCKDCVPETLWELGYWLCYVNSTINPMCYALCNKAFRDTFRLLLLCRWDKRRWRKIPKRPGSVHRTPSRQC
Method: as §1, §2

HPLC-logP determination = assay type: physicochemical; conditions: HPLC on apHERA stationary phase (5 µm, 10 × 6 mm), pH 7.4; read-out: HPLC-logPow pH7.4
mAChR M1 [3] = biological target: T4, mAChR M1; assay: Fluo-4 direct calcium assay, antagonist mode (block of carbachol response), CHO-M1 cells; assay type: cell-based; conditions: 20 µM carbachol
Method: (§4) For the Fluo-4 direct^TM calcium assay kit (invitrogen), 100 µL of a 5 × 10^5 cells/mL suspension of CHO-M1 cells were seeded in black clear bottom 96-well plates (Corning). After settling of the cells for 24 h, the kit was performed according to the supplier’s recommendation. In detail, the media was removed, and 50 µL of Hanks-balanced salt solution (HBSS; Sigma Aldrich) were added, followed by 50 µL of the Fluo-4 buffer solution (including probenecid). The 96-well plates were incubated for 60 min at 37 °C in the dark. For the agonist assay, 100 µL of a double-concentrated dilution series of carbachol (positive control), 1, 2, and 3 were added with the end concentration of 100, 10, 1, 0.1, 0.01 and 0.001 µM in duplicates. The relative fluorescence was measured with an excitation wavelength of 494 nm and an emission wavelength of 516 nm. For the antagonist assay, 50 µL of a 4-fold concentrated dilution series of scopolamine hydrochloride (positive control), 1, 2, and 3 were added in duplicates. Subsequently a 40 µM stock solution of carbachol was added to all wells, and the relative fluorescence was measured with an excitation wavelength of 494 nm and an emission wavelength of 516 nm. Stock solution of 1, 2, and 3 were in DMSO with a final concentration of at most 1% of DMSO. All experiments were performed at least in three repetitions.

human mAChR M3 = biological target: T5, human mAChR M3 (Homo sapiens, UniProt P20309); assay: competitive radioligand binding assay with [3H]NMS on CHO cell membranes, M3; conditions: n ≥ 3, ± standard deviation, read-out: Inhibition constants (Ki) M3
T5 construct: host or cells: CHO-K1
T5 sequence (P20309 whole entry): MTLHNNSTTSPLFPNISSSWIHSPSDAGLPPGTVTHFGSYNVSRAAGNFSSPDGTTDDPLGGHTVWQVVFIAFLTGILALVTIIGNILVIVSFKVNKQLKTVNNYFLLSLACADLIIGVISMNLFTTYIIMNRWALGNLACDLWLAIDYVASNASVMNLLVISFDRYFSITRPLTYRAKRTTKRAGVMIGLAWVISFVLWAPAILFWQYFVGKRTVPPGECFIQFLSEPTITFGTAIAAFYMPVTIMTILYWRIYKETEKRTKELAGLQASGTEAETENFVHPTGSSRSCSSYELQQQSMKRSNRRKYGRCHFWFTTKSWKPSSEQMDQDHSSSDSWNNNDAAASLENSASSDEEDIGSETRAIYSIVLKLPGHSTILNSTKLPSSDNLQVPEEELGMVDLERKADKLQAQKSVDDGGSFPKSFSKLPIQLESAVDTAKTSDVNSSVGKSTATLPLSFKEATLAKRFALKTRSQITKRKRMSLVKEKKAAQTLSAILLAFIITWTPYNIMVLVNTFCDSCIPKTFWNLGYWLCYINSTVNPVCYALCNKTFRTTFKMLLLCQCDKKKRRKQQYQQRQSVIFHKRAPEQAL
Method: as §1, §2

mAChR M1 [4] = biological target: T4, mAChR M1; assay: Fluo-4 direct calcium assay, agonist mode, CHO-M1 cells; assay type: cell-based; conditions: 0.001-100 µM
Method: as §4

[5] = stability in DPBS at 37 °C (UV-HPLC); assay type: physicochemical; conditions: for decomposition after 60 h: Sidak's multiple comparisons test; for decomposed after 2 h: linear interpolation between 0 h and 10 h
Method: as §3

[6] = pH 7.4; cited from earlier work

| Compound | Ki (human mAChR M2) | decomposed after 2 h [1] | Ki (human mAChR M5) | Ki (human mAChR M4) | Ki (mAChR M1 [2]) | chromatographic logD (HPLC-logP determination) | functionality (block of calcium response to carbachol) (mAChR M1 [3]) | Ki (human mAChR M3) | calcium release (agonistic activity) (mAChR M1 [4]) | decomposition after 60 h [5] | decomposed after 2 h [5] | HPLC-logPow pH7.4 [6] | decomposition after 60 h [1] | selectivity between M1 and M2 (mAChR M1 [2]; Ki M2 divided by Ki M1) | M1 over M4 subtype selectivity (mAChR M1 [2]; Ki M4 divided by Ki M1, Ki values of this work) |
| --- | --- | --- | --- | --- | --- | --- | --- | --- | --- | --- | --- | --- | --- | --- | --- |
| CN1CCC=C(C(=O)O[C@@H](c2ccccc2)[C@H](O)c2ccccc2)C1 (racemic) [compound 3, Rac. (1S,2R)-2-hydroxy-1,2-diphenylethyl 1-methyl-1,2,5,6-tetrahydropyridine-3-carboxylate] | 3700 ± 1000 nM | 2.5% | 970 ± 90 nM | 1600 ± 200 nM | 380 ± 90 nM | 2.39 ± 0.1 | antagonistic binding | 3200 ± 500 nM | no increase in calcium release | decomposed to the same extent | 0.8% |  |  |  |  |
| CN1CCC=C(C(=O)OC(c2ccccc2)c2ccccc2)C1 [arecaidine diphenylmethyl ester] |  |  |  |  |  |  |  |  |  |  |  | 3.32 ± 0.04 |  |  |  |
| CN1CCC=C(C(=O)O[C@H](c2ccccc2)[C@H](O)c2ccccc2)C1 [compound 1, (1R,2R)-(+)-2-hydroxy-1,2-diphenylethyl 1-methyl-1,2,5,6-tetrahydropyridine-3-carboxylate] | 1900 ± 300 nM | 2.5% | 600 ± 75 nM | 700 ± 300 nM | 99 ± 19 nM | 2.24 ± 0.12 | antagonistic binding | 1300 ± 600 nM | no increase in calcium release | decomposed to the same extent | 0.8% |  | significantly stronger compared to 2 | 19 fold | 7 fold |
| CN1CCC=C(C(=O)O[C@@H](c2ccccc2)[C@@H](O)c2ccccc2)C1 [compound 2, (1S,2S)-(−)-2-hydroxy-1,2-diphenylethyl 1-methyl-1,2,5,6-tetrahydropyridine-3-carboxylate] | 8000 ± 2000 nM | 2.5% | 1300 ± 300 nM | 2700 ± 600 nM | 800 ± 200 nM | 2.24 ± 0.12 | antagonistic binding | 1600 ± 300 nM | no increase in calcium release | decomposed to the same extent | 0.8% |  |  |  |  |
